Here are results for two molecules from patent US20240041769A1, “COMPOSITIONS AND METHODS FOR DELIVERY OF ANTICANCER AGENTS WITH IMPROVED THERAPEUTIC INDEX” (NanoTech Pharma Inc., priority 2020, published 2024).

Data set [1] can be described thus: In-vivo pharmacokinetic study, intravenous. Also noted: species or system BALB/c nude mice. The settings on record: mice, free drug solutions. The method, then:
In-vivo pharmacokinetic study of free afatinib and nintedanib combination (data not shown), and AFA/NIN-L (1:5 AFA:NIN molar ratio) were carried out in BALB/c nude mice. The preparation of the PEGylated AFA/NIN-L with TEA-SOS used as the trapping agent was described in the Experimental Method section. The mixture of afatinib and nintedanib free drug cocktail and PEGylated AFA/NIN-L with a molar ratio of 1:5 were administered intravenously via the tail vein into the mice and the plasma concentration of both AFA and NIN was monitored over time. Doses of the all drug formulations were 7.0 mg/kg of afatinib free base (10.3 mg/kg afatinib dimaleate) and 38.9 mg/kg of nintedanib free base (46.8 mg/kg nintedanib […]). After intravenous administration, blood was collected at multiple time points by cardiac puncture (3 mice per time point) and placed into EDTA coated micro containers. The samples were centrifuged to separate plasma, and plasma was transferred to another tube. Then, AFA and NIN plasma levels were quantified with LC-MS. PK parameters were then calculated from measured AFA and NIN plasma levels.

The conditions of data set [2]: clinical studies, oral afatinib; cited from earlier work.

In the case of `CN(C)C/C=C/C(=O)Nc1cc2c(Nc3ccc(F)c(Cl)c3)ncnc2cc1O[C@H]1CCOC1` [AFA, Afatinib], the “elimination after IV administration” value in data set [1] was “rapidly eliminated”. In data set [2], the “treatment-related grade ≥3 AE: diarrhea” value is 5.4-14.4%, the “treatment-related grade ≥3 AE: rash/acne” value is 9.7-16.2% and the “treatment-related grade ≥3 AE: stomatitis/mucositis” value is recorded as 5.4-8.7%.

On to `COC(=O)c1ccc2c(c1)NC(=O)/C2=C(\Nc1ccc(N(C)C(=O)CN2CCN(C)CC2)cc1)c1ccccc1` [NIN, Nintedanib], for which the “elimination after IV administration” value in data set [1] was “rapidly eliminated”.
